We go through two compounds from patent publication US10441590B2, “Methods for treating pulmonary hypertension” (Reviva Pharmaceuticals, Inc., priority 2015, dated 2019).

The target in test [1] is Human Cortex or Human recombinant 5-HT2A (Homo sapiens (Human), UniProt P28223). Put plainly: Serotonin 5HT2A radioligand binding assay.
Test [2] relates to monocrotaline-induced pulmonary arterial hypertension (PAH) in rats. Put plainly: Monocrotaline (MCT) induced pulmonary arterial hypertension rat model. In kind it is in vivo. The conditions noted are these: for Body Weight gain / Diastolic pulmonary pressure / Lung weight / Mean pulmonary pressure / Oxygen saturation / Respiratory resistance / Right systolic ventricular pressure / Systolic pulmonary pressure: MCT rat, Day 0 to Day 27, Day 28. From the text:
The purpose of this study was to assess the effect of the test articles on the monocrotaline-induced pulmonary arterial hypertension (PAH) in rats. The assay was designed to measure the pulmonary and systemic arterial blood pressures in anaesthetized rats with PAH induced by a single subcutaneous dose of monocrotaline. The results of the study are a quantitative measurement of the progression of the disease and its effects on the pulmonary arterial blood pressure (PAP), as well as wet organ weight in rats with induced PAH with and without treatment with test article or reference compound. Furthermore, a detailed morphometric and clinical investigation of the histology of the pulmonary vasculature was performed to correlate vascular remodeling with the functional impact of the onset of the PAH.
Male Wistar-Kyoto rats (Charles River Laboratories) weighing between 200 and 250 grams (approximately 10-12 week-old) were randomized across experimental groups, according to their body weight, with the aim of scheduling one animal per treatment group for each day of terminal surgery (when possible). […] Rats from treatment groups 2 to 4 received one subcutaneous injection of monocrotaline (MCT) solution (60 mg/kg) in DMSO on Day 0 and were returned to their cages. Rats from control group 1 received one subcutaneous injection of DMSO (vehicle for monocrotaline) on Day 0 and were returned to their respective cages. […] Food and water were given ad libitum. Daily observations of the behavior and general health status of the animals were done. Weekly blood draw, body weight and body temperature were taken.
On the day of surgery, the rats were anaesthetized, instrumented and hemodynamic parameters (systemic arterial blood pressure, right ventricular blood pressure, pulmonary arterial blood pressure, oxygen saturation, respiratory resistance, ventilatory pressure, respiration rate and heart rate) were recorded continuously for 5 minutes or until loss of quality in the pulmonary arterial pressure signal, whichever came first. The recordings included moving the pressure transducer from the right ventricular cavity to the pulmonary artery and back, observing the very clear transitions in diastolic pressures and general pressure waveforms as the catheter entered the artery, and was withdrawn into the ventricle. The rats were then exsanguinated and the pulmonary circulation was flushed with 0.9% NaCl. The trachea, lungs and heart were removed as a whole from the thoracic cavity. The right and left lobes of the lung were weighed before being perfused with 10% NBF and immersed in 10% formalin. The lungs were stored in 10% formalin at room temperature. The heart was excised to measure the wet weights of the right ventricle (RV) and left ventricle including the septum (LV-S) as part of the Fulton index calculation. Arterial blood pressure was recorded continuously throughout the experiment via an intra-arterial fluid-filled catheter (AD Instruments, Colorado Springs, Colo., USA). Diastolic and systolic pressures values were measured in mmHg using cursors readings in the Clampfit 10.2.0.14. Mean arterial blood pressure values were calculated using the following formula:
[formula] Values are presented as means±SEM (standard error of the means). Repeat unpaired Student's t-tests were performed in Microsoft Excel 2007 on all experimental conditions, comparing treatment groups to either the control, healthy animals, or the negative control animals (monocrotaline only). Differences were considered significant when p≤0.05. The study results are described in Table 2.

The target in another test is Human recombinant 5-HT6 (Homo sapiens (Human), UniProt P50406). Briefly: Serotonin 5HT6 radioligand binding assay.
Test [3] concerns Sugen-Hypoxia (SuHx) induced pulmonary arterial hypertension (PAH) in rats. Put plainly: Sugen-hypoxia (SuHx) induced pulmonary arterial hypertension rat model. The test is classed as in vivo. Conditions: for Body Weight gain / Diastolic pulmonary pressure / Lung weight / Mean pulmonary pressure / Oxygen saturation / Respiratory resistance / Right systolic ventricular pressure / Systolic pulmonary pressure: SuHx rat, Day 14 to Day 34, Day 35. From the text:
The assay was designed to measure the pulmonary arterial blood pressures in anaesthetized rats with PAH induced by a single subcutaneous dose of Sugen combined with three weeks in hypoxia. Combined with a macroscopic and morphometric histological examination of the tissues harvested from the animals, the results of the provide a quantitative measurement of the progression of the disease on the systemic arterial blood pressure, pulmonary arterial blood pressure, as well as wet organ weight and vascular remodeling in rats with SuHx-induced PAH treated with test article, vehicle, or reference compound.
Male Wistar-Kyoto rats (Charles River Laboratories) weighing between 200 and 250 grams (approximately 10-12 week-old) were randomized across experimental groups according to their body weight, with the aim of scheduling one rat per treatment group for each day of terminal surgery (when possible). […] Rats from Groups 2 to 4 (see Table 3) received a single subcutaneous injection of sugen (20 mg/kg) in DMSO on Day 0 and returned to their cages. Rats from Group 1 received one subcutaneous injection of DMSO (vehicle for sugen) on Day 0 and returned to their respective cages. Groups 2-4 were placed in cages for which the controlled air was adjusted to receive a FiO2 equivalent to 0.10 (10%) using a mixture of nitrogen and ambient air controlled by the ventilated cage system. They were kept under these hypoxic conditions for 21 days. While in hypoxia, cages were cleaned and changed every 48 hours, exposing the animals to ambient oxygen levels for less than 5 minutes per cleaning session. The animals were then exposed to ambient oxygen levels from Day 22 to Day 35. Group 1 animals remained in cages exposed to ambient oxygen levels for 35 days. The animals were observed on a daily basis for any changes in their behavior and general health status. […] Food and water were given ad libitum. Daily observation of the behavior and general health status of the animals was done. Weekly blood draws and body weights were taken. On the day of surgery, the rats were anaesthetized, instrumented and hemodynamic parameters (systemic arterial blood pressure, right ventricular blood pressure, pulmonary arterial blood pressure, oxygen saturation, respiratory resistance, ventilatory pressure, respiration rate and heart rate) were recorded continuously for 5 minutes or until loss of quality in the pulmonary arterial pressure signal, whichever came first. The recordings included moving the pressure transducer from the right ventricular cavity to the pulmonary artery and back, observing the very clear transitions in diastolic pressures and general pressure waveforms as the catheter entered the artery, and was withdrawn into the ventricle. The rats were then exsanguinated and the pulmonary circulation was flushed with 0.9% NaCl. The trachea, lungs and heart were removed as a whole from the thoracic cavity. The right and left lobes of the lung were weighed before being perfused with 10% NBF and immersed in 10% formalin. The lungs were stored in 10% formalin at room temperature. The heart was excised to measure the wet weights of the right ventricle (RV) and left ventricle including the septum (LV-S) as part of the Fulton index calculation.
Mean arterial blood pressure values and Fulton's index were calculated using the following formula as described above in Example 2. The study results are described in Table 4.

Another test addresses Human recombinant 5-HT2B (Homo sapiens (Human), UniProt P41595). Briefly: Serotonin 5HT2B radioligand binding assay.
The next test has as its target Human recombinant 5-HT7 (Homo sapiens (Human), UniProt P34969). Briefly: Serotonin 5HT7 radioligand binding assay.
The target of a further test is Human recombinant D2S (Homo sapiens (Human), UniProt P14416). Briefly: Dopamine D2S radioligand binding assay.
Another test concerns the target Human recombinant 5-HT1A (Homo sapiens (Human), UniProt P08908). Put plainly: Serotonin 5HT1A radioligand binding assay.

Structures can show the parent of a compound that is named as a salt. Where two headings read alike, the source gives them in different places.

Sequence of Human Cortex or Human recombinant 5-HT2A (P28223 whole entry): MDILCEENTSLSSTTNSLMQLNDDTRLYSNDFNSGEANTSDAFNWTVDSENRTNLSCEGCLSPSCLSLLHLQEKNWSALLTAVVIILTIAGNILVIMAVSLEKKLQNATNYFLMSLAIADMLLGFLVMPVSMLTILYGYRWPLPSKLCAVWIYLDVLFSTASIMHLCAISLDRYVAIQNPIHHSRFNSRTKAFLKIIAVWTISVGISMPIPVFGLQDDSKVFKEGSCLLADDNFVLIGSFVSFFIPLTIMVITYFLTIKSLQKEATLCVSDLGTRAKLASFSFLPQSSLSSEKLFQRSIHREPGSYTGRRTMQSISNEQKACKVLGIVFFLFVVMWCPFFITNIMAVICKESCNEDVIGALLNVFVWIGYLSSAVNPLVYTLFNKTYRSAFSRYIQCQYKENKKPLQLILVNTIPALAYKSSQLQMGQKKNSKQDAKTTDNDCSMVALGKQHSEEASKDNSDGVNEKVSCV
Sequence of Human recombinant 5-HT6 (P50406 whole entry): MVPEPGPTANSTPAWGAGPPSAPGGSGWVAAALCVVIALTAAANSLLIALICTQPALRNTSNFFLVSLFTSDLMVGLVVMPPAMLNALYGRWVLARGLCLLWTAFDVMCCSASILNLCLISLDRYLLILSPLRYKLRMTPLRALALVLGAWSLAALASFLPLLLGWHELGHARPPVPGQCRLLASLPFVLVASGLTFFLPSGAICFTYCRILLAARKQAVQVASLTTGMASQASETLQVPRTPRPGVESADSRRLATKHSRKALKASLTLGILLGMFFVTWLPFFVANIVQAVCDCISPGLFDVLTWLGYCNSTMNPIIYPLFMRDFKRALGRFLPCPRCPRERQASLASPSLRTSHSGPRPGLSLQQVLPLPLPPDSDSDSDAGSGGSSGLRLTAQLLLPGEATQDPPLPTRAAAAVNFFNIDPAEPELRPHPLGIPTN
Sequence of Human recombinant 5-HT7 (P34969 whole entry): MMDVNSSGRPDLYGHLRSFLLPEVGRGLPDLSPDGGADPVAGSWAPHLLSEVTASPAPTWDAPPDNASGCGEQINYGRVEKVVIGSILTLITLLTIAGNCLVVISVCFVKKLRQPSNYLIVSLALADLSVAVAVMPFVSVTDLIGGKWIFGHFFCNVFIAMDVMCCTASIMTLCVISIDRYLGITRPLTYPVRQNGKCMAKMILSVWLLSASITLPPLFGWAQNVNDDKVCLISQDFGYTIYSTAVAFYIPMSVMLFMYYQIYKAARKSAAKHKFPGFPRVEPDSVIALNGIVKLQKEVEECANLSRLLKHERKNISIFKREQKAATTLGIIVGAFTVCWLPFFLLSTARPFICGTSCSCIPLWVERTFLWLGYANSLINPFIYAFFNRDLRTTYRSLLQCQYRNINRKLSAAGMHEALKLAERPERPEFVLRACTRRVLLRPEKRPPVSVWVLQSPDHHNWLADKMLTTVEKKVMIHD
Sequence of Human recombinant D2S (P14416 other isoform, or with tags, fused parts or gaps): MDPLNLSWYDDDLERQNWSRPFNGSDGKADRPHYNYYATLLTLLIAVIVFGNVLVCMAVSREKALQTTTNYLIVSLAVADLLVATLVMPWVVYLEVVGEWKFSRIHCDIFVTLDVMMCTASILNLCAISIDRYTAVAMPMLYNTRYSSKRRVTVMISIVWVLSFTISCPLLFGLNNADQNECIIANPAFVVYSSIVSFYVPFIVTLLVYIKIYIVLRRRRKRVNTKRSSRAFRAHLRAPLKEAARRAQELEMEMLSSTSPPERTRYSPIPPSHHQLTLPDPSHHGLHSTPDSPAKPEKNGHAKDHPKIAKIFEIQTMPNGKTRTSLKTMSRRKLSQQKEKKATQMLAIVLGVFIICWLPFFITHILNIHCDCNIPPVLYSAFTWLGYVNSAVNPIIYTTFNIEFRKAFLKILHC
Sequence of Human recombinant 5-HT2B (P41595 whole entry): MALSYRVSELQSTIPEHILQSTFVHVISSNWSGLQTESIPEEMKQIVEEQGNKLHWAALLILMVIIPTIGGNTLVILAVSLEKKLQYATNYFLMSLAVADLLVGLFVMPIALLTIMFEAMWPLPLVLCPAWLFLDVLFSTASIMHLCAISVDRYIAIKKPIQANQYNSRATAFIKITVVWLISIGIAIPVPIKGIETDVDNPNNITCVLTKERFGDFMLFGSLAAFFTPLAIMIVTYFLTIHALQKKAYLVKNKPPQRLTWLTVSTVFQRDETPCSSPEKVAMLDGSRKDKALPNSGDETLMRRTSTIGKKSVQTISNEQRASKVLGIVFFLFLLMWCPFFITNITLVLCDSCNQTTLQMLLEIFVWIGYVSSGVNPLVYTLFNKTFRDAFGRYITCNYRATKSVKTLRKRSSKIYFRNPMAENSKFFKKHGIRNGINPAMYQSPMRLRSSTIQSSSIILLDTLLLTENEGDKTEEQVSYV

The term Ki denotes the dissociation constant of the complex between target and ligand, obtained from inhibition or displacement. In the case of `O=C1COc2ccc(OCCCCN3CCN(c4cccc(Cl)c4Cl)CC3)cc2N1` [Compound B, 6-(4-(4-(2,3-dichlorophenyl)piperazin-1-yl)butoxy)-2H-benzo[b][1,4]oxazin-3(4H)-one hydrochloride], the Ki was 2.50 nM in test [1] (hydrochloride); 2.5 nM in test [1] (listed as compound B, hydrochloride); 51 nM at Human recombinant 5-HT6; 0.19 nM at Human recombinant 5-HT2B; 2.7 nM at Human recombinant 5-HT7. Besides, the “efficacy for PAH” value in test [2] (MCT induced PAH rat model, summary statement) is given as “demonstrated efficacy for PAH”; in test [3] (SuHx induced PAH rat model, summary statement), “demonstrated efficacy for PAH”. Besides, the “Body Weight gain” value in test [2] (3 mg/kg bid oral gavage) stood at 22.9 g; in test [2] (10 mg/kg bid oral gavage), 23.1 g; in test [3] (10 mg/kg bid oral gavage), 66.7 g; in test [3] (20 mg/kg bid oral gavage), 50.8 g. Further, the Diastolic pulmonary pressure came to 19.2 mmHg in test [2] (3 mg/kg bid oral gavage), 14.7 mmHg in test [2] (10 mg/kg bid oral gavage), 15.3 mmHg in test [3] (10 mg/kg bid oral gavage) and 14.7 mmHg in test [3] (20 mg/kg bid oral gavage). Further, the Lung weight in test [2] (3 mg/kg bid oral gavage) was determined as 0.86%; in test [2] (10 mg/kg bid oral gavage), 0.86%; in test [3] (10 mg/kg bid oral gavage), 0.65%; in test [3] (20 mg/kg bid oral gavage), 0.62%. Moreover, the Mean pulmonary pressure in test [2] (3 mg/kg bid oral gavage) is listed as 32.0 mmHg; in test [2] (10 mg/kg bid oral gavage), 24.1 mmHg; in test [3] (10 mg/kg bid oral gavage), 20.9 mmHg; in test [3] (20 mg/kg bid oral gavage), 20.4 mmHg. Moreover, the Oxygen saturation in test [2] (3 mg/kg bid oral gavage) was 93.5%; in test [2] (10 mg/kg bid oral gavage) it was 96.5%; in test [3] (10 mg/kg bid oral gavage) it was 95.9%; in test [3] (20 mg/kg bid oral gavage), 96.9%. The Respiratory resistance in test [2] (3 mg/kg bid oral gavage) amounted to 15.7; in test [2] (10 mg/kg bid oral gavage) it was 10.7; in test [3] (10 mg/kg bid oral gavage), 12.4; in test [3] (20 mg/kg bid oral gavage), 11.1. The “Right systolic ventricular pressure” value in test [2] (3 mg/kg bid oral gavage) is on record as 58.4 mmHg; in test [2] (10 mg/kg bid oral gavage), 43.1 mmHg; in test [3] (10 mg/kg bid oral gavage) it was 32.8 mmHg; in test [3] (20 mg/kg bid oral gavage), 34.2 mmHg. Besides, the Systolic pulmonary pressure in test [2] (3 mg/kg bid oral gavage) stood at 57.7 mmHg; in test [2] (10 mg/kg bid oral gavage), 43.0 mmHg; in test [3] (10 mg/kg bid oral gavage), 32.2 mmHg; in test [3] (20 mg/kg bid oral gavage), 32.0 mmHg. For the same compound, the “severity of PAH (right ventricular hypertrophy, pulmonary artery pressure, respiratory resistance)” value is listed as “decreasing the severity of PAH” in test [2] (MCT, summary statement) and “decreasing the severity of PAH” in test [3] (SuHx, summary statement).

In the case of “6-(4-(4-(2-methoxyphenyl)piperazin-1-yl)butoxy)-2H-benzo[b][1,4]oxazin-3(-4H)-one hydrochloride [Compound A]”, the Ki in test [1] was 118 nM; on Human recombinant D2S, 0.3 nM; on Human recombinant 5-HT1A, 0.65 nM.
